Active and inactive are the calls of the source. The calls are words filed in the database; no cut-off is given here.
Key:
[1] = target: Fibroblast growth factor receptor 1 (Homo sapiens) (UniProt P11362); settings: Compound concentration 100.0 nM
[2] = target: Angiopoietin-1 receptor (Homo sapiens) (UniProt Q02763); settings: Compound concentration 100.0 nM
[3] = tested on: Epidermal growth factor receptor (Homo sapiens), P00533 [G719C]; settings: Compound concentration 100.0 nM
[4] = target: Mitogen-activated protein kinase 13 (Homo sapiens) (UniProt O15264); settings: Compound concentration 100.0 nM
[5] = target: Serine/threonine-protein kinase STK11 (Homo sapiens) (UniProt Q15831); settings: Compound concentration 100.0 nM
[6] = target: 1-phosphatidylinositol 3-phosphate 5-kinase (Homo sapiens) (UniProt Q9Y2I7); settings: Compound concentration 100.0 nM
[7] = target: STE20-like serine/threonine-protein kinase (Homo sapiens) (UniProt Q9H2G2); settings: Compound concentration 100.0 nM
[8] = target: Serine/threonine-protein kinase PLK3 (Homo sapiens) (UniProt Q9H4B4); settings: Compound concentration 100.0 nM
Mast cell = assay: Human Mast Cell degranulation; assay type: cell-based
[9] = target: Calcium/calmodulin-dependent protein kinase type II subunit beta (Homo sapiens) (UniProt Q13554); settings: Compound concentration 100.0 nM
[10] = target: Macrophage colony-stimulating factor 1 receptor (Homo sapiens) (UniProt P07333); settings: Compound concentration 100.0 nM
[11] = target: Ribosomal protein S6 kinase alpha-1 (Homo sapiens) (UniProt Q15418); settings: Compound concentration 100.0 nM
[12] = target: RAF proto-oncogene serine/threonine-protein kinase (Homo sapiens) (UniProt P04049); settings: Compound concentration 100.0 nM
[13] = target: Eukaryotic translation initiation factor 2-alpha kinase 1 (Homo sapiens) (UniProt Q9BQI3); settings: Compound concentration 100.0 nM
[14] = target: 5-hydroxytryptamine receptor 1D (Homo sapiens) (UniProt P28221); settings: Compound concentration 10.0 uM
[15] = target: Fibroblast growth factor receptor 4 (Homo sapiens) (UniProt P22455); settings: Compound concentration 100.0 nM
[16] = target: Tyrosine-protein kinase SYK (Homo sapiens, UniProt P43405); assay: Human SKY enzyme assay
[17] = target: Dual specificity mitogen-activated protein kinase kinase 7 (Homo sapiens) (UniProt O14733); settings: Compound concentration 100.0 nM
[18] = target: Dual specificity tyrosine-phosphorylation-regulated kinase 1B (Homo sapiens) (UniProt Q9Y463); settings: Compound concentration 100.0 nM
[19] = target: Serine/threonine-protein kinase NLK (Homo sapiens) (UniProt Q9UBE8); settings: Compound concentration 100.0 nM
[20] = tested on: Receptor-type tyrosine-protein kinase FLT3 (Homo sapiens), P36888 [D835Y]; settings: Compound concentration 100.0 nM
[21] = target: Ribosomal protein S6 kinase alpha-3 (Homo sapiens) (UniProt P51812); settings: Compound concentration 100.0 nM
[22] = target: Wee1-like protein kinase (Homo sapiens) (UniProt P30291); settings: Compound concentration 100.0 nM
[23] = target: Cyclin-dependent kinase 14 (Homo sapiens) (UniProt O94921); settings: Compound concentration 100.0 nM
[24] = target: Serine/threonine-protein kinase SIK2 (Homo sapiens) (UniProt Q9H0K1); settings: Compound concentration 100.0 nM
[25] = target: Cyclin-dependent kinase 15 (Homo sapiens) (UniProt Q96Q40); settings: Compound concentration 100.0 nM
[26] = target: Mitogen-activated protein kinase 15 (Homo sapiens) (UniProt Q8TD08); settings: Compound concentration 100.0 nM
[27] = target: G protein-coupled receptor kinase 4 (Homo sapiens) (UniProt P32298); settings: Compound concentration 100.0 nM
[28] = target: Receptor-interacting serine/threonine-protein kinase 1 (Homo sapiens) (UniProt Q13546); settings: Compound concentration 100.0 nM
[29] = target: Serine/threonine-protein kinase PAK 3 (Homo sapiens) (UniProt O75914); settings: Compound concentration 100.0 nM
[30] = target: Serine/threonine-protein kinase TAO1 (Homo sapiens) (UniProt Q7L7X3); settings: Compound concentration 100.0 nM
[31] = tested on: Phosphatidylinositol 4,5-bisphosphate 3-kinase catalytic subunit alpha isoform (Homo sapiens), P42336 [I800L]; settings: Compound concentration 100.0 nM
[32] = tested on: Mast/stem cell growth factor receptor Kit (Homo sapiens), P10721 [L576P]; settings: Compound concentration 100.0 nM
[33] = target: Mitogen-activated protein kinase kinase kinase 15 (Homo sapiens) (UniProt Q6ZN16); settings: Compound concentration 100.0 nM
[34] = target: Ribosomal protein S6 kinase alpha-1 (Homo sapiens) (UniProt Q15418); settings: Compound concentration 100.0 nM; remark: listed apart in the source
[35] = target: Ephrin type-A receptor 4 (Homo sapiens) (UniProt P54764); settings: Compound concentration 100.0 nM
[36] = target: Protein kinase C iota type (Homo sapiens) (UniProt P41743); settings: Compound concentration 100.0 nM
[37] = target: Phosphatidylinositol 4,5-bisphosphate 3-kinase catalytic subunit alpha isoform (Homo sapiens) (UniProt P42336); settings: Compound concentration 100.0 nM
[38] = tested on: Mast/stem cell growth factor receptor Kit (Homo sapiens), P10721 [A829P]; settings: Compound concentration 100.0 nM
[39] = target: Tyrosine-protein kinase ZAP-70 (Homo sapiens) (UniProt P43403); settings: Compound concentration 100.0 nM
[40] = target: GABA-A receptor; anion channel (Rattus norvegicus) (UniProt O09028+P15431+P18506+P18508+P19969+P20236+P23574+P23576+P28471+P28473+P30191+P62813+P63079+P63138+Q91ZM7+Q9ES14); settings: Compound concentration 10.0 uM
[41] = tested on: Epidermal growth factor receptor (Homo sapiens), P00533 [L858R,T790M]; settings: Compound concentration 100.0 nM
[42] = target: 5'-AMP-activated protein kinase catalytic subunit alpha-2 (Homo sapiens) (UniProt P54646); settings: Compound concentration 100.0 nM
[43] = target: Mitogen-activated protein kinase kinase kinase kinase 3 (Homo sapiens) (UniProt Q8IVH8); settings: Compound concentration 100.0 nM
Chain of Mitogen-activated protein kinase kinase kinase kinase 3 (Homo sapiens) (Q8IVH8 whole entry): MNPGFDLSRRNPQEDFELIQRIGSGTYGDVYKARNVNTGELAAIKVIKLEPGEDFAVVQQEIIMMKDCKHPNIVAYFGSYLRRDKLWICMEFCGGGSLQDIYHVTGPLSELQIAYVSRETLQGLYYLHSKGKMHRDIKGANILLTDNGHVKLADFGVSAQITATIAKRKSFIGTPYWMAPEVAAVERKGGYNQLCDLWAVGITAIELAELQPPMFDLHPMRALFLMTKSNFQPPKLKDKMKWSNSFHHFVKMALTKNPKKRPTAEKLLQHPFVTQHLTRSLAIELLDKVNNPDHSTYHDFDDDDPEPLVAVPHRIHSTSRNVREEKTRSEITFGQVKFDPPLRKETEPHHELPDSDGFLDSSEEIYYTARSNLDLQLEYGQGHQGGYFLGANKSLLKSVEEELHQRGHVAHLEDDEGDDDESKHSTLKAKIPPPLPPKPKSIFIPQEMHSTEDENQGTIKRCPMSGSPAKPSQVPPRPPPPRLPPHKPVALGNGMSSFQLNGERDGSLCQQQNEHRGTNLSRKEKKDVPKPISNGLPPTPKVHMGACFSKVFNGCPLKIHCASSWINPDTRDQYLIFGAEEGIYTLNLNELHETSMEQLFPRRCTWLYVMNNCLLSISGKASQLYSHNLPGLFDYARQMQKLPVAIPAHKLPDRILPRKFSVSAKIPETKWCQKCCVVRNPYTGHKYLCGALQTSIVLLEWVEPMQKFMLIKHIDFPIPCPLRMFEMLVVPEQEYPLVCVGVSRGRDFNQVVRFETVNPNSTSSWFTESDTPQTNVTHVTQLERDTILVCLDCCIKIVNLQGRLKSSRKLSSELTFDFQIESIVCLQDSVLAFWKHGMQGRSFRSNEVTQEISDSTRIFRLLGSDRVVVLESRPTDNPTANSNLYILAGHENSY

Chain of Ribosomal protein S6 kinase alpha-1 (Homo sapiens) (Q15418 whole entry): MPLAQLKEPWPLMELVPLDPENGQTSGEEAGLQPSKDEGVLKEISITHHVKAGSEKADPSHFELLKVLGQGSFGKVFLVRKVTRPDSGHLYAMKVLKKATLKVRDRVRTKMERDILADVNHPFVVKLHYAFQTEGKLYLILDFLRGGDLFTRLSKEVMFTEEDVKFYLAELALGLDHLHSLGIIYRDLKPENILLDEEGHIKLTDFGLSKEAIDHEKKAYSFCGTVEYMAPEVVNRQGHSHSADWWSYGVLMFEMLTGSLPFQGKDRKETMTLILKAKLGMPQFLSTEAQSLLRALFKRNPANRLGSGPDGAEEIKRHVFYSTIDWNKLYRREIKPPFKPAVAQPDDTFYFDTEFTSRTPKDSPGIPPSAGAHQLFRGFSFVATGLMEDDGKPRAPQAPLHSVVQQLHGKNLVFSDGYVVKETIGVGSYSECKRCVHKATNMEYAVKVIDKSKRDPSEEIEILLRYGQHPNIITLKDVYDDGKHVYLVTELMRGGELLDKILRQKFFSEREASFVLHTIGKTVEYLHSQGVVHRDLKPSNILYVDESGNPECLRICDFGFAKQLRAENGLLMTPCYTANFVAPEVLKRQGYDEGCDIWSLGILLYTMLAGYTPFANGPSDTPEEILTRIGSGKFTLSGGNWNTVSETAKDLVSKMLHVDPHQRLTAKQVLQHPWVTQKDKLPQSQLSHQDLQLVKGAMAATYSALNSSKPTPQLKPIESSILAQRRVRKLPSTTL
Chain of 5'-AMP-activated protein kinase catalytic subunit alpha-2 (Homo sapiens) (P54646 whole entry, looked up): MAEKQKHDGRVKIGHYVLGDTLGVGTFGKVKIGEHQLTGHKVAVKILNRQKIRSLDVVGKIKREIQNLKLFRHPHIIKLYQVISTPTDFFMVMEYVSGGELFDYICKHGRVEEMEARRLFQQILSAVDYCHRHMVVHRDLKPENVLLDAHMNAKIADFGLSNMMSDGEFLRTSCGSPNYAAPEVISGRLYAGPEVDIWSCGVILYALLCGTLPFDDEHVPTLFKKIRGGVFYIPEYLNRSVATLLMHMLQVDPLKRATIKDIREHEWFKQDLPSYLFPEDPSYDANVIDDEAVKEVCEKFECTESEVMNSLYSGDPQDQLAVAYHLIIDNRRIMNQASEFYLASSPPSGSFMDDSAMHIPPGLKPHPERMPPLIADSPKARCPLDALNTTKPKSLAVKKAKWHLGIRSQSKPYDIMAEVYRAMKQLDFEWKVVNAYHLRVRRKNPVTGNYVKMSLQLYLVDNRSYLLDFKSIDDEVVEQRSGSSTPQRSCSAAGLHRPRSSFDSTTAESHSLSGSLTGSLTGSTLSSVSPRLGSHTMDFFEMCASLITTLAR
Chain of Wee1-like protein kinase (Homo sapiens) (P30291 whole entry, looked up): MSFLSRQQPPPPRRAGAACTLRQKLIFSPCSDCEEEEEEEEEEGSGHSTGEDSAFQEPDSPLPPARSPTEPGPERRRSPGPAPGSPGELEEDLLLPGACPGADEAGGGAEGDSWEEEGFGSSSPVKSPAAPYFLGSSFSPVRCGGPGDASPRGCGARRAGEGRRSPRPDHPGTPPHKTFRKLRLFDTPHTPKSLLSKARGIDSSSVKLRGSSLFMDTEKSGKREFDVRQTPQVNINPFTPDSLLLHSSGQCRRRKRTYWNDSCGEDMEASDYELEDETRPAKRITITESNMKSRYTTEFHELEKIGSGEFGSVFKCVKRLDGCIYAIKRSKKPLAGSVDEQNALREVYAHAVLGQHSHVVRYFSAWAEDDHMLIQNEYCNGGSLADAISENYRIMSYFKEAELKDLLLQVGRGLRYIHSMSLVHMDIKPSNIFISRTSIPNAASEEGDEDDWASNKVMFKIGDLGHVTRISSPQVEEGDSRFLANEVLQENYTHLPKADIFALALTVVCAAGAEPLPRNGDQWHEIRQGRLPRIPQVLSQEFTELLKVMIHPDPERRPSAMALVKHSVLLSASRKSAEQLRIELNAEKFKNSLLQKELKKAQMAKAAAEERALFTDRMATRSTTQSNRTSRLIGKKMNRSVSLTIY
Chain of Phosphatidylinositol 4,5-bisphosphate 3-kinase catalytic subunit alpha isoform (Homo sapiens) (P42336 whole entry, canonical isoform): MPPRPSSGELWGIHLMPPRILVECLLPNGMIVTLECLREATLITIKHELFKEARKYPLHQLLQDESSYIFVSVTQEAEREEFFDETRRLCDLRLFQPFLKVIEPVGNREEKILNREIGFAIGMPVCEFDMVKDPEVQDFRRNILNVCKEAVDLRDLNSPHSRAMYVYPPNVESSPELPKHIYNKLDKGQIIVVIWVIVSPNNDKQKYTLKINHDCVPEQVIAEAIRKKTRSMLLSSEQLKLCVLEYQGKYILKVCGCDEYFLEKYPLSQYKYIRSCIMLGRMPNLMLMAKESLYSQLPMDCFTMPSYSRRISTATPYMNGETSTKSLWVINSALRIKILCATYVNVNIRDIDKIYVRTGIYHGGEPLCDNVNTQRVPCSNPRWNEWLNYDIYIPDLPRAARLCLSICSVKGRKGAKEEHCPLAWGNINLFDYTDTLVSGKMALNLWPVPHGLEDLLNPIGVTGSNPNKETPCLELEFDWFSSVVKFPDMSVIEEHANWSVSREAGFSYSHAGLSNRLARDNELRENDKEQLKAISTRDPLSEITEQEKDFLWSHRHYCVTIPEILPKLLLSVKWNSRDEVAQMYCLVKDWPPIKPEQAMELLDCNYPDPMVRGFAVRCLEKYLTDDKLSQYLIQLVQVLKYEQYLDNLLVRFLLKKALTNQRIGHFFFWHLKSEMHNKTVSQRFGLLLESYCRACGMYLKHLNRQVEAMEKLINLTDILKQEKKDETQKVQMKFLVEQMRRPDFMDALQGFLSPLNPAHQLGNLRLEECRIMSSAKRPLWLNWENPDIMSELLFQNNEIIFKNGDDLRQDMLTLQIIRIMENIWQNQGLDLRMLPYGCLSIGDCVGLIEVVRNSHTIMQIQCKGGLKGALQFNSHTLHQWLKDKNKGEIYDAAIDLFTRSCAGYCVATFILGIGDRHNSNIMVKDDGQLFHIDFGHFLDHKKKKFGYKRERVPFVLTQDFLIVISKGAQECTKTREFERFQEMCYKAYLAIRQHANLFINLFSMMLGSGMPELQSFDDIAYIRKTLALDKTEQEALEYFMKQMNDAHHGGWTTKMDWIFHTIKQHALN
Chain of Calcium/calmodulin-dependent protein kinase type II subunit beta (Homo sapiens) (Q13554 whole entry): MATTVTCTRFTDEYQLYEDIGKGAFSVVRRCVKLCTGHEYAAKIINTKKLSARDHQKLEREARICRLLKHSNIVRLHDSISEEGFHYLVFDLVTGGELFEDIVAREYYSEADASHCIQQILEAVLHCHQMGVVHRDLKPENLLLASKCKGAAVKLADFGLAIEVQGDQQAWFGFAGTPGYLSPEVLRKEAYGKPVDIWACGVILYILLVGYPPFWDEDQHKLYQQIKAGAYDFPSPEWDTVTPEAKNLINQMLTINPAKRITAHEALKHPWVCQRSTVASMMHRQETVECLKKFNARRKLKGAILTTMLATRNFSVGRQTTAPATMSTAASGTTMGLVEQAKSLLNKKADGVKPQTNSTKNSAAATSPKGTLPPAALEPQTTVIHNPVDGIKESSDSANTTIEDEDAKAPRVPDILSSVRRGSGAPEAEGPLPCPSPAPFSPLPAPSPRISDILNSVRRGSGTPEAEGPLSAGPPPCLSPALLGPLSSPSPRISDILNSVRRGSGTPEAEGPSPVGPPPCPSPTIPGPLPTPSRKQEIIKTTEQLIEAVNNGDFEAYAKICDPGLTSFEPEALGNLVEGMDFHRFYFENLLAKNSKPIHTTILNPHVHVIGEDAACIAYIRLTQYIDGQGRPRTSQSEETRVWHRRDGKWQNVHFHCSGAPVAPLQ
Chain of 5-hydroxytryptamine receptor 1D (Homo sapiens) (P28221 whole entry): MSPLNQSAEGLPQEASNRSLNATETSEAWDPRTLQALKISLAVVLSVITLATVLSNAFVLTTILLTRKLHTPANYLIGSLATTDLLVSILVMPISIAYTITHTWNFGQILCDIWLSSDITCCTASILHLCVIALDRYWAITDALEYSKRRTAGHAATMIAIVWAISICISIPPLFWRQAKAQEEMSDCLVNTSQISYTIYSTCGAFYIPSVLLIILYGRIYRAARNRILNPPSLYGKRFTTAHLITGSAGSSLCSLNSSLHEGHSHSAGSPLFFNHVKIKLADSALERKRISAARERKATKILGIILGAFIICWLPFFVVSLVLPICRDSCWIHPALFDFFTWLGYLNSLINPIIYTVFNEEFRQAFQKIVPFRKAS

Structure (SMILES): Cc1ccc(-c2cnc([C@@]3(O)CC[C@H](C(=O)O)C(C)(C)C3)s2)cc1Nc1cccc(C(F)(F)F)n1 [MRL-SYKi-NC]
- residual activity [1]: 92.4%
- residual activity [2]: 95.2%
- residual activity [3]: 100%
- residual activity [4]: 100%
- residual activity [5]: 70.8%
- residual activity [6]: 89.4%
- residual activity [7]: 93.6%
- residual activity [8]: 100%
- IC50 (Mast cell): > 10000 nM (not active)
- residual activity [9]: 95.3%
- residual activity [10]: 84%
- residual activity [11]: 91.2%
- residual activity [12]: 100%
- residual activity [13]: 83.4%
- inhibition [14]: 16.5%
- residual activity [15]: 100%
- IC50 [16]: 4700 nM (not active)
- residual activity [17]: 77.8%
- residual activity [18]: 97.4%
- residual activity [19]: 100%
- residual activity [20]: 94.1%
- residual activity [21]: 73.8%
- residual activity [22]: 81.4%
- residual activity [23]: 100%
- residual activity [24]: 88.9%
- residual activity [25]: 89.7%
- residual activity [26]: 80.3%
- residual activity [27]: 100%
- residual activity [28]: 95.9%
- residual activity [29]: 76.3%
- residual activity [30]: 89.5%
- residual activity [31]: 76.7%
- residual activity [32]: 100%
- residual activity [33]: 85%
- residual activity [34]: 100%
- residual activity [35]: 100%
- residual activity [36]: 96.2%
- residual activity [37]: 86.9%
- residual activity [38]: 61.5%
- residual activity [39]: 88.5%
- inhibition [40]: 20.3%
- residual activity [41]: 100%
- residual activity [42]: 94.7%
- residual activity [43]: 100%

Structure (SMILES): Cc1cc(Nc2nccc(C)n2)cc(-c2cnc([C@@]3(O)CC[C@H](C(=O)O)C(C)(C)C3)s2)c1 [MRL-SYKi]
- residual activity [1]: 82%
- residual activity [2]: 99%
- residual activity [3]: 100%
- residual activity [4]: 97.9%
- residual activity [5]: 100%
- residual activity [6]: 98.7%
- residual activity [7]: 96.4%
- residual activity [8]: 74.6%
- IC50 (Mast cell): 38 nM (active)
- residual activity [9]: 100%
- residual activity [10]: 85.6%
- residual activity [11]: 93%
- residual activity [12]: 100%
- residual activity [13]: 100%
- inhibition [14]: 2.65%
- residual activity [15]: 100%
- IC50 [16]: 0.9 nM (active)
- residual activity [17]: 90.3%
- residual activity [18]: 69.4%
- residual activity [19]: 73%
- residual activity [20]: 83.4%
- residual activity [21]: 83.4%
- residual activity [22]: 93.1%
- residual activity [23]: 100%
- residual activity [24]: 95.7%
- residual activity [25]: 100%
- residual activity [26]: 100%
- residual activity [27]: 100%
- residual activity [28]: 87.1%
- residual activity [29]: 100%
- residual activity [30]: 100%
- residual activity [31]: 95.1%
- residual activity [32]: 85.1%
- residual activity [33]: 80.5%
- residual activity [34]: 100%
- residual activity [35]: 78.6%
- residual activity [36]: 77.3%
- residual activity [37]: 100%
- residual activity [38]: 100%
- residual activity [39]: 44.9%
- inhibition [40]: -2.68%
- residual activity [41]: 46.2%
- residual activity [42]: 100%
- residual activity [43]: 100%
